Assay results from article PMC13185819, “De Novo Multi‐Mechanism Antimicrobial Peptide Design via Multimodal Deep Learning” (Advanced Science, 2026).
In brackets after ≈: the same amount, converted by molar mass. Residues, ends and D or L forms follow the SMILES beside them.

Key:
Type in all cases: cell-based
[1] = test system: E.coli 110
Method: (§1) Standard strains included S. aureus ATCC33592, S. aureus CICC25138, and Salmonella enterica ATCC14028, which were purchased from the China Center of Industrial Culture Collection (CICC). Standard strains including E.coli CMCC44102, Salmonella enterica CMCC50071, and S. aureus CMCC26003 were purchased from the National Center for Medical Culture Collections (CMCC). […] All experiments using the above strains were carried out in a BSL‐2 laboratory. The clinical laboratory of Qilu Hospital detected bacterial resistance to various antibiotics. All strains were streaked on Nutrient Broth (NB) agar medium and incubated overnight at 37°C.
(§2) The antimicrobial activity of the peptides was examined in sterile 96‐well plates using the broth microdilution according to the CLSI standard. The colonies were suspended in saline solution, the turbidity was adjusted to McFarland 0.5 to reach a bacterial concentration of 10^8 CFU/mL, and again diluted 100 times for the inhibition test. Then, 50 µL of bacterial suspension at 1 × 10^6 CFU/mL was incubated with the same volume of different concentrations of peptide solution [serial twofold dilutions in Mueller–Hinton Broth (Hopebio)]. […] All experiments were performed with three independent replicates.

[2] = test system: P. aeruginosa 116
Method: as §1, §2

[3] = test system: P. aeruginosa 119
Method: as §1, §2

[4] = test system: S. aureus 129
Method: as §1, §2

[5] = test system: E. faecium 1042
Method: as §1, §2

[6] = test system: S. aureus 103
Method: as §1, §2

[7] = test system: K. pneumoniae 7713
Method: as §1, §2

[8] = test system: E.coli 208
Method: as §1, §2

[9] = test system: E. faecium 21
Method: as §1, §2

[10] = test system: S. aureus CICC25138
Method: as §1, §2

[11] = test system: S. aureus ATCC33592
Method: as §1, §2

[12] = test system: P. aeruginosa 112
Method: as §1, §2

Compound	MIC (μg/mL) E.coli 110 [1]	MIC (μg/mL) P. aeruginosa 116 [2]	MIC (μg/mL) P. aeruginosa 119 [3]	MIC (μg/mL) S. aureus 129 [4]	MIC (μg/mL) E. faecium 1042 [5]	MIC (μg/mL) S. aureus 103 [6]	MIC (μg/mL) K. pneumoniae 7713 [7]	MIC (μg/mL) E.coli 208 [8]	MIC (μg/mL) E. faecium 21 [9]	MIC (μg/mL) S. aureus CICC25138 [10]	MIC (μg/mL) S. aureus ATCC33592 [11]	MIC (μg/mL) P. aeruginosa 112 [12]
CC[C@H](C)[C@H](NC(=O)[C@H](CCCCN)NC(=O)[C@H](Cc1c[nH]c2ccccc12)NC(=O)[C@@H](N)CCCCN)C(=O)N[C@@H](CCCCN)C(=O)N[C@@H](Cc1c[nH]c2ccccc12)C(=O)N1CCC[C@H]1C(=O)N[C@@H](CO)C(=O)N[C@@H](CC(N)=O)C(=O)N[C@@H](Cc1c[nH]c2ccccc12)C(=O)N[C@@H](Cc1ccccc1)C(=O)N[C@H](C(=O)N[C@@H](CCCCN)C(=O)N[C@@H](CC(C)C)C(N)=O)[C@@H](C)O [QLX-3DV-3] (H-KWKIKWPSNWFTKL-NH2)	16 µg/mL (≈ 8.6 µM)	16 µg/mL (≈ 8.6 µM)	32 µg/mL (≈ 17.2 µM)	64 µg/mL (≈ 34.4 µM)	8 µg/mL (≈ 4.3 µM)	32 µg/mL (≈ 17.2 µM)	16 µg/mL (≈ 8.6 µM)	8 µg/mL (≈ 4.3 µM)	8 µg/mL (≈ 4.3 µM)	32 µg/mL (≈ 17.2 µM)	32 µg/mL (≈ 17.2 µM)	32 µg/mL (≈ 17.2 µM)
CC[C@H](C)[C@H](NC(=O)[C@H](CCCCN)NC(=O)[C@H](Cc1c[nH]c2ccccc12)NC(=O)[C@@H](N)CCCCN)C(=O)N[C@@H](CCCCN)C(=O)N[C@@H](Cc1c[nH]c2ccccc12)C(=O)N1CCC[C@H]1C(=O)N[C@@H](CO)C(=O)N[C@@H](CCCNC(=N)N)C(=O)N[C@@H](Cc1c[nH]c2ccccc12)C(=O)N[C@@H](Cc1ccccc1)C(=O)N[C@H](C(=O)N[C@@H](CCCCN)C(=O)N[C@@H](CC(C)C)C(N)=O)[C@@H](C)O [QLX-3DV-4] (H-KWKIKWPSRWFTKL-NH2)	32 µg/mL (≈ 16.8 µM)	32 µg/mL (≈ 16.8 µM)	32 µg/mL (≈ 16.8 µM)	32 µg/mL (≈ 16.8 µM)	16 µg/mL (≈ 8.41 µM)	16 µg/mL (≈ 8.41 µM)	16 µg/mL (≈ 8.41 µM)	16 µg/mL (≈ 8.41 µM)	8 µg/mL (≈ 4.2 µM)	16 µg/mL (≈ 8.41 µM)	32 µg/mL (≈ 16.8 µM)	32 µg/mL (≈ 16.8 µM)
CC[C@H](C)[C@H](NC(=O)[C@H](CCCCN)NC(=O)[C@H](Cc1c[nH]c2ccccc12)NC(=O)[C@@H](N)CCCCN)C(=O)N[C@@H](CCCCN)C(=O)N[C@@H](CCCNC(=N)N)C(=O)N1CCC[C@H]1C(=O)N[C@H](C(=O)N[C@@H](CCCCN)C(=O)N[C@@H](Cc1c[nH]c2ccccc12)C(=O)N[C@@H](Cc1ccccc1)C(=O)N[C@H](C(=O)N[C@@H](CCSC)C(=O)N[C@@H](CC(C)C)C(N)=O)[C@@H](C)O)C(C)C [QLX-3DV-5] (H-KWKIKRPVKWFTML-NH2)	8 µg/mL (≈ 4.3 µM)	128 µg/mL (≈ 68.8 µM)	64 µg/mL (≈ 34.4 µM)	128 µg/mL (≈ 68.8 µM)	32 µg/mL (≈ 17.2 µM)	32 µg/mL (≈ 17.2 µM)	8 µg/mL (≈ 4.3 µM)	8 µg/mL (≈ 4.3 µM)	8 µg/mL (≈ 4.3 µM)	64 µg/mL (≈ 34.4 µM)	64 µg/mL (≈ 34.4 µM)	16 µg/mL (≈ 8.6 µM)
CC[C@H](C)[C@H](NC(=O)[C@H](CCCCN)NC(=O)[C@H](Cc1c[nH]c2ccccc12)NC(=O)[C@@H](N)CCCCN)C(=O)N[C@@H](CCCCN)C(=O)N[C@@H](CCC(N)=O)C(=O)N[C@@H](Cc1c[nH]c2ccccc12)C(=O)N[C@H](C(=O)N[C@@H](CCCNC(=N)N)C(=O)N[C@@H](Cc1c[nH]c2ccccc12)C(=O)N[C@@H](Cc1ccccc1)C(=O)N[C@@H](CCCNC(=N)N)C(=O)N[C@@H](CCCCN)C(=O)N[C@@H](CC(C)C)C(N)=O)C(C)C [QLX-3DV-6] (H-KWKIKQWVRWFRKL-NH2)	8 µg/mL (≈ 4 µM)	16 µg/mL (≈ 7.99 µM)	128 µg/mL (≈ 64 µM)	16 µg/mL (≈ 7.99 µM)	8 µg/mL (≈ 4 µM)	16 µg/mL (≈ 7.99 µM)	16 µg/mL (≈ 7.99 µM)	4 µg/mL (≈ 2 µM)	8 µg/mL (≈ 4 µM)	16 µg/mL (≈ 7.99 µM)	16 µg/mL (≈ 7.99 µM)	32 µg/mL (≈ 16 µM)
